Columns and labels:
[1] = target: Dual specificity protein kinase CLK2 (Homo sapiens) (UniProt P49760); details: Compound concentration 1000.0 nM
[2] = target: Serine/threonine-protein kinase TAO2 (Homo sapiens) (UniProt Q9UL54); details: Compound concentration 1000.0 nM
[3] = target: Homeodomain-interacting protein kinase 1 (Homo sapiens) (UniProt Q86Z02); details: Compound concentration 1000.0 nM
[4] = target: Membrane-associated tyrosine- and threonine-specific cdc2-inhibitory kinase (Homo sapiens) (UniProt Q99640); details: Compound concentration 1000.0 nM
Membrane-associated tyrosine- and threonine-specific cdc2-inhibitory kinase (Homo sapiens), sequence (Q99640 whole entry): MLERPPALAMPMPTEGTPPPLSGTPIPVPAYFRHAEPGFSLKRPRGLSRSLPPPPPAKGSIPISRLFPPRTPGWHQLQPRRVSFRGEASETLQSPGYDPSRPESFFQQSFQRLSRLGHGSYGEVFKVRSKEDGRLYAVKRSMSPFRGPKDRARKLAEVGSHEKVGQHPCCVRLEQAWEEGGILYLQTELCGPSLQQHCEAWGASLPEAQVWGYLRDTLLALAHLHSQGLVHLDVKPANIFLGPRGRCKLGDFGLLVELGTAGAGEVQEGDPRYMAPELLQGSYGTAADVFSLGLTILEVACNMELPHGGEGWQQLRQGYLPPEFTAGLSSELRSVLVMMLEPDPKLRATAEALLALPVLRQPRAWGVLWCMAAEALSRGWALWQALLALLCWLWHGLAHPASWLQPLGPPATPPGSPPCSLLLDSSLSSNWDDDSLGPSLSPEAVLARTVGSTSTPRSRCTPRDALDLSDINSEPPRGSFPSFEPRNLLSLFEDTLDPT

[5] = target: Receptor tyrosine-protein kinase erbB-4 (Homo sapiens) (UniProt Q15303); details: Compound concentration 1000.0 nM
Receptor tyrosine-protein kinase erbB-4 (Homo sapiens), sequence (Q15303 whole entry): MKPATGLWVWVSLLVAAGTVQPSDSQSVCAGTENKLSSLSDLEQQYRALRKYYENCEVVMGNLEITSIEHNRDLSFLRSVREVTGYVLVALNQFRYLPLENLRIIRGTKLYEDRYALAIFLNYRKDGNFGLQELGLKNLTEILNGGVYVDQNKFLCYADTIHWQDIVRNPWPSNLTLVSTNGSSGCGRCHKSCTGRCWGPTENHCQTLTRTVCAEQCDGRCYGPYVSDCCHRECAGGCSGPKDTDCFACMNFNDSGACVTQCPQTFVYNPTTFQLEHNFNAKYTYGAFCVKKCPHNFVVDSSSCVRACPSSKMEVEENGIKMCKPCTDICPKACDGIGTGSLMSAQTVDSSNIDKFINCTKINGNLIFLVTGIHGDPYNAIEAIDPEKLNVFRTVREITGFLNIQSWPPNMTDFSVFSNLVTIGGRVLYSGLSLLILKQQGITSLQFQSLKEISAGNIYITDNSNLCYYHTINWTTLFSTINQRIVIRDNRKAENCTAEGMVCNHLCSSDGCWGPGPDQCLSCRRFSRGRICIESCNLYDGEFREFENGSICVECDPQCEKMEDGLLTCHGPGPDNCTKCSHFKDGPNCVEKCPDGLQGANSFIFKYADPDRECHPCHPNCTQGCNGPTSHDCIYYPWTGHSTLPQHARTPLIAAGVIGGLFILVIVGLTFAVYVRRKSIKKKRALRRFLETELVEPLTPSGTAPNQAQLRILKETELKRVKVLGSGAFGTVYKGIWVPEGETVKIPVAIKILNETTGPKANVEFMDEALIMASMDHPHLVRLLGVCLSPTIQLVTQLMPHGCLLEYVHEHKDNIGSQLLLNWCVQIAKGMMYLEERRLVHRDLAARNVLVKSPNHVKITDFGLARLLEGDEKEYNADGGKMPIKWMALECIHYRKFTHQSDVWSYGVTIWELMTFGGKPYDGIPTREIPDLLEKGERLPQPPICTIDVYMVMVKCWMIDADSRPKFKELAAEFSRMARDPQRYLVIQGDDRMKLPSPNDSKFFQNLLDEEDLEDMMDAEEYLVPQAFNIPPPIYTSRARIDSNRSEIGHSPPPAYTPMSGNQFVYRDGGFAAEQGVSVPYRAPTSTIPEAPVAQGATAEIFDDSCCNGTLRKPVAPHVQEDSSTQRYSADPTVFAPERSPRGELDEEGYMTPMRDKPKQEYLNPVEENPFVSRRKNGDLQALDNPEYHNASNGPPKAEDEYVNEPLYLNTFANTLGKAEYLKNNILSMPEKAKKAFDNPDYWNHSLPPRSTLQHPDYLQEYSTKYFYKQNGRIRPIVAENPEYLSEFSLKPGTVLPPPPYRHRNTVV

[6] = target: Rho-associated protein kinase 1 (Homo sapiens) (UniProt Q13464); details: Compound concentration 1000.0 nM
[7] = target: Serine/threonine-protein kinase PAK 1 (Homo sapiens) (UniProt Q13153); details: Compound concentration 1000.0 nM
[8] = target: 5'-AMP-activated protein kinase catalytic subunit alpha-2 (Homo sapiens) (UniProt P54646); details: Compound concentration 1000.0 nM
[9] = target: Dual specificity protein kinase CLK3 (Homo sapiens) (UniProt P49761); details: Compound concentration 1000.0 nM
[10] = test system: Proto-oncogene tyrosine-protein kinase receptor Ret (Homo sapiens), P07949 [V804M]; details: Compound concentration 1000.0 nM
[11] = target: Vascular endothelial growth factor receptor 3 (Homo sapiens) (UniProt P35916); details: Compound concentration 1000.0 nM
[12] = target: Beta-adrenergic receptor kinase 1 (Homo sapiens) (UniProt P25098); details: Compound concentration 1000.0 nM
Beta-adrenergic receptor kinase 1 (Homo sapiens), sequence (P25098 whole entry): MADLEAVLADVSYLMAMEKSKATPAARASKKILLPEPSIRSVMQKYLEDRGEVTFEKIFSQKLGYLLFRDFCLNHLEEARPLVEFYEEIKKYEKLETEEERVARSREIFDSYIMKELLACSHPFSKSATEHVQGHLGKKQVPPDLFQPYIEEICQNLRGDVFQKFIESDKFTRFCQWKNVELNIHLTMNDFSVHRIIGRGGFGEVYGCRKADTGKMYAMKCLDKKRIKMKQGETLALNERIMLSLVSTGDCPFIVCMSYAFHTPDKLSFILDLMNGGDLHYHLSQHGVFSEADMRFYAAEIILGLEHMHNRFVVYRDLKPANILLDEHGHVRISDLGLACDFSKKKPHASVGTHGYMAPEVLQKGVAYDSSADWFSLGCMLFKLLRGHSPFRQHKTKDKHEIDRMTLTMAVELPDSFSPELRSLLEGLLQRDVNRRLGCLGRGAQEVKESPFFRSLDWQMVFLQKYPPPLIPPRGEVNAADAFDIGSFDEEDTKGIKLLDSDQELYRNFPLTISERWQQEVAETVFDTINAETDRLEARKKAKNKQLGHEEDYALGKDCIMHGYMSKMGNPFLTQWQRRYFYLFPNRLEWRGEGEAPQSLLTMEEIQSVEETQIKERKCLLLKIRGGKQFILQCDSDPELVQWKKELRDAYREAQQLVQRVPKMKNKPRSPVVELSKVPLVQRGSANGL

[13] = target: Platelet-derived growth factor receptor alpha (Homo sapiens) (UniProt P16234); details: Compound concentration 1000.0 nM
[14] = target: Cyclin-dependent kinase 18 (Homo sapiens) (UniProt Q07002); details: Compound concentration 1000.0 nM
[15] = target: Ribosomal protein S6 kinase alpha-4 (Homo sapiens) (UniProt O75676); details: Compound concentration 1000.0 nM
[16] = target: Dual specificity tyrosine-phosphorylation-regulated kinase 1B (Homo sapiens) (UniProt Q9Y463); details: Compound concentration 1000.0 nM
[17] = target: Hormonally up-regulated neu tumor-associated kinase (Homo sapiens) (UniProt P57058); details: Compound concentration 1000.0 nM
[18] = test system: Phosphatidylinositol 4,5-bisphosphate 3-kinase catalytic subunit alpha isoform (Homo sapiens), P42336 [E542K]; details: Compound concentration 1000.0 nM
[19] = target: Serine/threonine-protein kinase DCLK3 (Homo sapiens) (UniProt Q9C098); details: Compound concentration 1000.0 nM
[20] = target: Epithelial discoidin domain-containing receptor 1 (Homo sapiens) (UniProt Q08345); details: Compound concentration 1000.0 nM
Epithelial discoidin domain-containing receptor 1 (Homo sapiens), sequence (Q08345 whole entry, the tested form may be a part): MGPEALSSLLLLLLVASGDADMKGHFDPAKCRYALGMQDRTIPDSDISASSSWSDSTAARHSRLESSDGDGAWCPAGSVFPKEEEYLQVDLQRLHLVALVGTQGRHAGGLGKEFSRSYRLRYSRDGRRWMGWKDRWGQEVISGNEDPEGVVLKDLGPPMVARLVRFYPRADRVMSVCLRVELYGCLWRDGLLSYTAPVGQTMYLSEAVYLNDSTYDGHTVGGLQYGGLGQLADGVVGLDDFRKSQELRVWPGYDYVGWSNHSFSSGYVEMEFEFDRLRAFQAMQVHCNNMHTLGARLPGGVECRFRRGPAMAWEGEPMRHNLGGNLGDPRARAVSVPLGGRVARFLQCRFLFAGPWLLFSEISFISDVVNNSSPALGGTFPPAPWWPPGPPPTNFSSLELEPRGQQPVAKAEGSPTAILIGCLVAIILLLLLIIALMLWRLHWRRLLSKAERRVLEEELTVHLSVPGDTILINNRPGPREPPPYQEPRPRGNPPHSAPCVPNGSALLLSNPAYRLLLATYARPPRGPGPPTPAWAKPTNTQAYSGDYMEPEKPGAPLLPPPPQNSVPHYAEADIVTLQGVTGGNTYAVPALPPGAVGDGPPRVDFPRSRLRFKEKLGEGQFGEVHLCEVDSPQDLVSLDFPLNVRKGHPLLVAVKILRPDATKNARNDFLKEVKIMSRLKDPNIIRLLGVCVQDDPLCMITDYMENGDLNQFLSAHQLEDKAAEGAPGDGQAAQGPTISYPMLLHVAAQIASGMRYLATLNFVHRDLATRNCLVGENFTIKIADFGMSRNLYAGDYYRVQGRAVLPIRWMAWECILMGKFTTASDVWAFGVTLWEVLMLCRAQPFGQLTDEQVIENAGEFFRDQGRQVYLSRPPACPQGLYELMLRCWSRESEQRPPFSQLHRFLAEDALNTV

[21] = target: Serine/threonine-protein kinase Nek11 (Homo sapiens) (UniProt Q8NG66); details: Compound concentration 1000.0 nM
[22] = target: Serine/threonine-protein kinase ULK3 (Homo sapiens) (UniProt Q6PHR2); details: Compound concentration 1000.0 nM
[23] = target: Cyclin-dependent kinase 9 (Homo sapiens) (UniProt P50750); details: Compound concentration 1000.0 nM
[24] = test system: eIF-2-alpha kinase GCN2 (Homo sapiens), Q9P2K8 [S808G]; details: Compound concentration 1000.0 nM
[25] = target: Serine/threonine-protein kinase RIO3 (Homo sapiens) (UniProt O14730); details: Compound concentration 1000.0 nM
[26] = test system: Tyrosine-protein kinase ABL1 (Homo sapiens), P00519 [T315I]; details: Compound concentration 1000.0 nM
[27] = target: Sigma non-opioid intracellular receptor 1 (Homo sapiens, UniProt Q99720); details: Compound concentration 10.0 uM
Sigma non-opioid intracellular receptor 1, sequence (Q99720 whole entry): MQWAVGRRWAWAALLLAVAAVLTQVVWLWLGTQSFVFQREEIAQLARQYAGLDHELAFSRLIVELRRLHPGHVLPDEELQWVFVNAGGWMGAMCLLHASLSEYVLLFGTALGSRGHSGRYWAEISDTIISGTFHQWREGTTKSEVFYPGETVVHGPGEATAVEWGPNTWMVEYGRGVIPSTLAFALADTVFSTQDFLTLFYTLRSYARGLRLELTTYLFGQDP

[28] = target: Mitogen-activated protein kinase 11 (Homo sapiens) (UniProt Q15759); details: Compound concentration 1000.0 nM
[29] = target: Insulin receptor (Homo sapiens) (UniProt P06213); details: Compound concentration 1000.0 nM
Insulin receptor (Homo sapiens), sequence (P06213 28-758 limits assumed): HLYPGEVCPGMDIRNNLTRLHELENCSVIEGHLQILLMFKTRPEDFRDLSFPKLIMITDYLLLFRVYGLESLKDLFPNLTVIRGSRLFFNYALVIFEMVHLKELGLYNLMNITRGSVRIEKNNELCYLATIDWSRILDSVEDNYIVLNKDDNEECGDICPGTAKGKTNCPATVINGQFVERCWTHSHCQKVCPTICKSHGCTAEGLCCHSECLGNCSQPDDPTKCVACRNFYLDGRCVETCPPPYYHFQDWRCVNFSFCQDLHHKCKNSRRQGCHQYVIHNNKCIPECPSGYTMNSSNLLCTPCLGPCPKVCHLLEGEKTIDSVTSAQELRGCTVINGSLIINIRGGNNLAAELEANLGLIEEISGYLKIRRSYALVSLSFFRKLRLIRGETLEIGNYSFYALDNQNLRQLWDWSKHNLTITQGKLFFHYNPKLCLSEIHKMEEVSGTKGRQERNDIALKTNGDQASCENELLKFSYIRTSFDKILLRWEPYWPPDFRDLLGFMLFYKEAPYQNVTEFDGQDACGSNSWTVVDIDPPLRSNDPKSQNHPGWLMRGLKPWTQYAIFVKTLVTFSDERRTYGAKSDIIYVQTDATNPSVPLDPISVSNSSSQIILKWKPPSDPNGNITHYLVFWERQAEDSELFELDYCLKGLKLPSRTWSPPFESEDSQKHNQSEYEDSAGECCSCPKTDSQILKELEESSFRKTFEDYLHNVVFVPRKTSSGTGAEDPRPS
Insulin receptor (Homo sapiens), sequence (P06213 763-1382 limits assumed): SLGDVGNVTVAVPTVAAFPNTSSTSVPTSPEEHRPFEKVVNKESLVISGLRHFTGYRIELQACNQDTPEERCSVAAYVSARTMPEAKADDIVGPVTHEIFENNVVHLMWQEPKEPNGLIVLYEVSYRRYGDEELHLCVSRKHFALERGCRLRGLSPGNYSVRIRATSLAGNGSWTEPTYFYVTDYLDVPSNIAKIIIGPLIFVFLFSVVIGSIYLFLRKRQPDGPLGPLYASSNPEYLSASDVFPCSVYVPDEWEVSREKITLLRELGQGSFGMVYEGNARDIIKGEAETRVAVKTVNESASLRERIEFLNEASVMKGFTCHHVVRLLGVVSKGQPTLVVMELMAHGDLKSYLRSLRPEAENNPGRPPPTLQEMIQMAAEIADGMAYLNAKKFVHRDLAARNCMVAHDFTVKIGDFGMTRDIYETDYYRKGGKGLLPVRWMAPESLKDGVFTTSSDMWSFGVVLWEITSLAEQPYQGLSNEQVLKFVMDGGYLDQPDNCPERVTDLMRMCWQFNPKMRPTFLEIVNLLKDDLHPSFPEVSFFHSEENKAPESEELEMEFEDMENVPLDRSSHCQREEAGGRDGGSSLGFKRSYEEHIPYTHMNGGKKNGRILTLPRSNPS

[30] = target: T1, Alpha-1A adrenergic receptor (Homo sapiens) (UniProt P35348); details: Compound concentration 10.0 uM
T1 sequence (whole entry): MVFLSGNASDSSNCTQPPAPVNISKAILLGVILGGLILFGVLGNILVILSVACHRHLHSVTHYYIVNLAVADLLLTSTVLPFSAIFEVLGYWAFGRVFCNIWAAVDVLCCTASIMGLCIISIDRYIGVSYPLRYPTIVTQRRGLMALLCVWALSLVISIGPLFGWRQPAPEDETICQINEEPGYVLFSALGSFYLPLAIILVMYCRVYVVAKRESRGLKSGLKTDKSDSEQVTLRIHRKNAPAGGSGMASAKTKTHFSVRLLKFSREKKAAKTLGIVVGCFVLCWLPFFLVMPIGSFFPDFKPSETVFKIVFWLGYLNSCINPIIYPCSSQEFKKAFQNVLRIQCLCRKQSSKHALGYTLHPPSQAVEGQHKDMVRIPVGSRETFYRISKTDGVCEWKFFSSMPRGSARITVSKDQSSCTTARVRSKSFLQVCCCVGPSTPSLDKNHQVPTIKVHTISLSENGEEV

[31] = test system: Receptor-type tyrosine-protein kinase FLT3 (Homo sapiens), P36888 [UNDEFINED MUTATION]; details: Compound concentration 1000.0 nM
[32] = target: Serine/threonine-protein kinase MARK1 (Homo sapiens) (UniProt Q9P0L2); details: Compound concentration 1000.0 nM
[33] = target: Serine/threonine-protein kinase Nek9 (Homo sapiens) (UniProt Q8TD19); details: Compound concentration 1000.0 nM
[34] = target: Testis-specific serine/threonine-protein kinase 1 (Homo sapiens) (UniProt Q9BXA7); details: Compound concentration 1000.0 nM
[35] = target: Rhodopsin kinase GRK1 (Homo sapiens) (UniProt Q15835); details: Compound concentration 1000.0 nM
[36] = target: Tyrosine-protein kinase Tec (Homo sapiens) (UniProt P42680); details: Compound concentration 1000.0 nM
[37] = target: Serine/threonine-protein kinase SIK2 (Homo sapiens) (UniProt Q9H0K1); details: Compound concentration 1000.0 nM
[38] = target: Ribosomal protein S6 kinase alpha-5 (Homo sapiens) (UniProt O75582); details: Compound concentration 1000.0 nM

Row | Structure (SMILES) | residual activity [1] | residual activity [2] | residual activity [3] | residual activity [4] | residual activity [5] | residual activity [6] | residual activity [7] | residual activity [8] | residual activity [9] | residual activity [10] | residual activity [11] | residual activity [12] | residual activity [13] | residual activity [14] | residual activity [15] | residual activity [16] | residual activity [17] | residual activity [18] | residual activity [19] | residual activity [20] | further results
1 | Cc1nccc(COC(=O)N2C[C@@H]3[C@@H](CNC(=O)c4ccc5[nH]nnc5c4)[C@@H]3C2)n1 [BI 3017] | 80% | 91% | 82% | 100% | 100% | 71% | 92% | 97% | 90% | 100% | 100% | 100% | 80% | 100% | 100% | 99% | 81% | 86% | 100% | 100% | residual activity [21]: 88%; residual activity [22]: 100%; residual activity [23]: 100%; residual activity [24]: 84%; residual activity [25]: 100%; residual activity [26]: 95%; inhibition [27]: 3.21%; residual activity [28]: 94%; residual activity [29]: 84%; inhibition [30]: -3.15%; residual activity [31]: 100%; residual activity [32]: 84%; residual activity [33]: 100%; residual activity [34]: 91%; residual activity [35]: 100%; residual activity [36]: 94%; residual activity [37]: 92%; residual activity [38]: 74%
2 | O=C(NC[C@@H]1[C@H]2CN(C(=O)OCc3cc(C(F)(F)F)cc(C(F)(F)F)c3)C[C@@H]12)c1ccc2[nH]nnc2c1 [BI 2545] | 86% | 86% | 85% | 100% | 100% | 85% | 100% | 100% | 78% | 88% | 88% | 71% | 97% | 100% | 100% | 86% | 100% | 75% | 100% | 83% | residual activity [21]: 100%; residual activity [22]: 99%; residual activity [23]: 91%; residual activity [24]: 84%; residual activity [25]: 94%; residual activity [26]: 93%; inhibition [27]: 51.2%; residual activity [28]: 100%; residual activity [29]: 83%; inhibition [30]: 4.06%; residual activity [31]: 85%; residual activity [32]: 98%; residual activity [33]: 77%; residual activity [34]: 100%; residual activity [35]: 90%; residual activity [36]: 100%; residual activity [37]: 100%; residual activity [38]: 100%

— ChEMBL document CHEMBL4507275, “Data for DCP probe BI-2545” (2021)
